The text below walks through data of patent US6300501A, “Histidine-(N-benzyl glycinamide) inhibitors of protein farnesyl transferase” (Warner-Lambert Company, priority 1998, dated 2001).

Data set [1] concerns H61 cells: NIH transformed 3T3 H-ras cells. As to the kind of experiment: Clonogenic assay (6 well plates, soft agar). The format is cell-based. To be noted: colonies counted after Day 13, read-out: Clonogenic Assay IC50. The method, boiled down: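 Soft-agar colony formation: cells seeded in 0.3% agar top layer with 20% calf serum over a 0.6% agar base, drug or DMSO added at 4 µL per mL agar/medium. Incubated at 37 °C, 5% CO2; INT (1 mg/mL) added on day 13 to stain colonies.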

For data set [2], the target named is T1, SF9 affinity purified rat farnesyl protein transferase (Rattus norvegicus, UniProt Q02293+Q04631).
T1 construct: made in house; host or cells: Sf9 insect cells (baculovirus system inferred from b7)
As to the kind of experiment: PFT inhibitory activity (radiolabeled farnesyl pyrophosphate, streptavidin bead assay). Type of data set: biochemical. The method in brief:
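HEPES pH 7.4 with 5 mM potassium phosphate (also run without), 20 μM ZnCl2, 5 mM DTT, 5 mM MgCl2, 0.1% PEG 8000; [3H]farnesyl pyrophosphate 134 nM and biotinyl-Ahe-TKCVIM peptide 0.2 μM final. Incubated 30 min at 30° C, stopped with acidic magnesium acetate/streptavidin bead buffer; bead-bound radioactivity counted.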

In data set [3] the test system is H61 tumor cell xenografts. The experiment in a line: In vivo assay: H61 tumor xenografts in nude mice. The protocol:
The compound described in Example 15 was tested for its ability to inhibit the growth of H61 tumor cell xenografts in nude mice. H61 Cells are fibroblasts transformed to a malignant state by transfection with an activated mutant form of human h-ras. Ten to 30 mg fragments of H61 tumors were inoculated SC (subcutaneously) in the axial region into female nude mice with a trocar needle on day zero of the experiment. The mice were randomized to treatment groups and were then given SC injections of the compound described in Example 15 suspended in 10% cremofor/10% ethanol/80% water twice each day on Days 3-17 of the experiment. At Day 12 of the experiment, the median control tumor burden was 1958 mg as assessed by caliper measurements.

Data set [4] concerns ras farnesylation in ras-transformed cells. The experiment in a line: Gel shift assay. The format is cell-based. Conditions: ras-transformed cells, 18-hour incubation; read-out: Gel Shift (μM) MED (minimal effective dose to observe inhibition of ras farnesylation). The method in brief: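 Ras-transformed cells (2×10^6 per condition) treated with farnesylation inhibitor at varying concentrations for 18 h. Ras immunoprecipitated from lysates with Y13-259, resolved on 14% SDS gels and detected by pan-ras Western blot with ECL, farnesylated and unfarnesylated ras separating by mobility shift.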

Data set [5] deals with EJ-1 human bladder carcinoma, HT1080 human fibrosarcoma and human colon carcinoma xenografts. Conditions: 100 mg/kg; cited from earlier work.
The subject of data set [6] is human lung carcinoma with K-ras mutation and p53 deletion. To be noted: nude mice; cited from earlier work.
Data set [7] deals with mammary and salivary carcinomas. To be noted: daily administration; cited from earlier work.
The mark [8] stands for this setting: HEPES buffer pH 7.4, without 5 mM potassium phosphate, read-out: IC50 (μM) Hepes.
Setting [9] is: HEPES buffer pH 7.4 containing 5 mM potassium phosphate, read-out: IC50 (μM) 5 mM K3 PO4 -2.

Like-named read-outs stand apart in the source and are kept apart here.

T1 sequence (Q02293 whole entry, one chain of several): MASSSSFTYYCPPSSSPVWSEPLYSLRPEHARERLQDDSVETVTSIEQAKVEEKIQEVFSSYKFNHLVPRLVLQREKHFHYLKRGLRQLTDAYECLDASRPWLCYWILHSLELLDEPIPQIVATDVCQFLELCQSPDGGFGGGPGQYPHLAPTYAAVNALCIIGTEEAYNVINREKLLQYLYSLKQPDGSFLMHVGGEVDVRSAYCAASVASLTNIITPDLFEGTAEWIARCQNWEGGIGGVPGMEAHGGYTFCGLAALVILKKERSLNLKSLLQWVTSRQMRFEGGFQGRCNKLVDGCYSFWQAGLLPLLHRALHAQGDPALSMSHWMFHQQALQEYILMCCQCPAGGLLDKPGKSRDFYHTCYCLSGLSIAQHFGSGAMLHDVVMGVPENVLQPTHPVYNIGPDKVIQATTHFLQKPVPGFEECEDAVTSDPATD

With `CC(C)(CNC(=O)CN(Cc1ccc(OCc2ccccc2)cc1)C(=O)[C@H](Cc1cnc[nH]1)NC(=O)OCc1ccccc1)c1ccccc1` [Example 15, (S)-[1-{(4-Benzyloxy-benzyl)-[(2-methyl-2-phenyl-propylcarbamoyl)-methyl]-carbamoyl}-2-(3H-imidazole-4-yl)-ethyl]-carbamic Acid Benzyl Ester], the IC50 (as a rule, the concentration that gives 50% inhibition) amounted to 0.19 µM in data set [1] (312 h), 0.12 µM in data set [2] (setting [8]) and 0.007 µM in data set [2] (setting [9]). This molecule registered a median tumor burden in data set [3] (125 mg/kg/injection SC twice each day, Days 3-17, Day 12, median control tumor burden 1958 mg) of 106 mg. Moreover, the “inhibition of tumor growth” value in data set [3] (125 mg/kg/injection SC twice each day, Day 12) turned out to be 95%. Also, the tumor growth delay entry in data set [3] (125 and 78 mg/kg/injection dose levels) is listed as “tumor growth delay also consistent with significant inhibition of tumor growth”. Further, in data set [3] (125 and 78 mg/kg/injection dose levels, nude mice), the “tolerability / host toxicity” value was “well-tolerated with minimal or no host toxicity”. Further, the minimal effective concentration in data set [4] lay within 0.01 to 0.05 µM.

In the case of `CC(C)(CNC(=O)CN(Cc1cccnc1)C(=O)[C@H](Cc1c[nH]cn1)NC(=O)OCc1ccccc1)c1ccccc1` [Example 39, (S)-(2-(1H-Imidazole-4-yl)-1-{[(2-methyl-2-phenyl-propylcarbamoyl)-methyl]-pyridin-3-ylmethyl-carbamoyl}-ethyl)-carbamic Acid Benzyl Ester], the IC50 was over 1 µM in data set [1] (312 h), 9.5 µM in data set [2] (setting [8]) and 0.1 µM in data set [2] (setting [9]). Further, the minimal effective concentration in data set [4] was over 0.2 µM.

As for `CC(C)(CNC(=O)CN(Cc1ccc(OCc2ccccn2)cc1)C(=O)[C@H](Cc1c[nH]cn1)NC(=O)OCc1ccccc1)c1ccccc1` [Example 40, (S)-(2-(1H-Imidazole-4-yl)-1-{[(2-methyl-2-phenyl-propylcarbamoyl)-methyl]-[4-(pyridin-2-ylmethoxy)-benzyl]-carbamoyl}-ethyl)-carbamic Acid Benzyl Ester], the IC50 in data set [1] (312 h) amounted to 0.19 µM; in data set [2] (setting [8]), 0.12 µM; in data set [2] (setting [9]), 0.001 µM. The minimal effective concentration in data set [4] came out at 0.01 µM.

As for `CN(Cc1ccccc1)C(=O)N[C@@H](Cc1c[nH]cn1)C(=O)N(CC(=O)NCC(C)(C)c1ccccc1)Cc1ccc(OCc2ccccc2)cc1` [Example 41, (S)-2-(3-Benzyl-3-methyl-ureido)-N-(4-benzyloxy-benzyl)-3-(1H-imidazole-4-yl)-N-[(2-methyl-2-phenyl-propylcarbamoyl)-methyl]-propionamide], the figures for the IC50 in data set [1] (312 h), in data set [2] (setting [8]) and in data set [2] (setting [9]) were 0.04 µM, 0.009 µM and 0.004 µM, respectively. Further, in data set [4], the minimal effective concentration was found to be 0.05 µM.

For `CC(C)(CNC(=O)CN(Cc1ccccc1)C(=O)[C@H](Cc1c[nH]cn1)NC(=O)OCc1ccccc1)c1ccccc1` [Example 42, (S)-[1-{Benzyl-[(2-methyl-2-phenyl-propylcarbamoyl)-methyl]-carbamoyl}-2-(1H-imidazole-4-yl)-ethyl]-carbamic Acid Benzyl Ester], the IC50 was determined as 0.51 µM in data set [1] (312 h), 0.6 µM in data set [2] (setting [8]) and 0.005 µM in data set [2] (setting [9]). Further, in data set [4], the minimal effective concentration was 0.05 µM.

Consider `Cc1ccccc1CN(CC(=O)NCC(C)c1ccccc1)C(=O)[C@H](Cc1c[nH]cn1)NC(=O)OCc1ccccc1` (stereo partly drawn) [Example 43], for which the IC50 in data set [1] is over 1 µM; in data set [2] (setting [8]) it was 3.9 µM; in data set [2] (setting [9]) it was 0.038 µM. The minimal effective concentration in data set [4] was 0.2 µM.

With `COc1ccc(CN(CC(=O)NCC(C)(C)c2ccccc2)C(=O)[C@H](Cc2c[nH]cn2)NC(=O)OCc2ccccc2)cc1` [Example 44, (S)-(2-(1H-Imidazole-4-yl)-1-{(4-methoxy-benzyl)-[(2-methyl-2-phenyl-propylcarbamoyl)-methyl]-carbamoyl}-ethyl)-carbamic Acid Benzyl Ester], the IC50 in data set [1] (312 h) turned out to be 0.36 µM; in data set [2] (setting [8]) it was 0.3 µM; in data set [2] (setting [9]), 0.002 µM. For the same molecule, the minimal effective concentration in data set [4] was found to be 0.02 µM.

Take `N#CC(CNC(=O)CN(Cc1ccc(OCc2ccccc2)cc1)C(=O)[C@H](Cc1c[nH]cn1)NC(=O)OCc1ccccc1)c1ccccc1` (stereo partly drawn) [Example 45]: the IC50 is 0.14 µM in data set [1], 0.35 µM in data set [2] (setting [8]) and 0.0024 µM in data set [2] (setting [9]). For the same molecule, the minimal effective concentration in data set [4] is 0.05 µM.

As for `Cc1cccc(CN(CC(=O)NCC(C)c2ccccc2)C(=O)[C@H](Cc2c[nH]cn2)NC(=O)OCc2ccccc2)c1` (stereo partly drawn) [Example 47, (S)-(2-(1H-Imidazole-4-yl)-1-{(3-methyl-benzyl)-[(2-phenyl-propylcarbamoyl)-methyl]-carbamoyl}-ethyl)-carbamic Acid Benzyl Ester], the IC50 in data set [1] (312 h) is 0.73 µM; in data set [2] (setting [8]), 0.62 µM; in data set [2] (setting [9]), 0.035 µM. In addition, the minimal effective concentration in data set [4] worked out at 0.05 µM.

Take `CC(C)(CNC(=O)CN(Cc1ccc(OCc2ccncc2)cc1)C(=O)[C@H](Cc1c[nH]cn1)NC(=O)OCc1ccccc1)c1ccccc1` [Example 49, (S)-(2-(1H-Imidazole-4-yl)-1-{[(2-methyl-2-phenyl-propylcarbamoyl)-methyl]-[4-(pyridin-4-ylmethoxy)-benzyl]-carbamoyl}-ethyl)-carbamic Acid Benzyl Ester]: the figures for the IC50 in data set [1] (312 h), in data set [2] (setting [8]) and in data set [2] (setting [9]) were 0.1 µM, 0.06 µM and 0.009 µM, respectively. Further, the minimal effective concentration in data set [4] was determined as 0.05 µM.

Consider `CC(C)(CNC(=O)CN(Cc1ccc(OCc2cccnc2)cc1)C(=O)[C@H](Cc1c[nH]cn1)NC(=O)OCc1ccccc1)c1ccccc1` [Example 50, (S)-(2-(1H-Imidazole-4-yl)-1-{[(2-methyl-2-phenyl-propylcarbamoyl)-methyl]-[4-(pyridin-3-ylmethoxy)-benzyl]-carbamoyl}-ethyl)-carbamic Acid Benzyl Ester], for which the IC50 in data set [1] (312 h) was found to be 0.27 µM; in data set [2] (setting [8]), 0.089 µM; in data set [2] (setting [9]), 0.001 µM. In addition, the minimal effective concentration in data set [4] stood at 0.05 µM.

Turning to `CC(CNC(=O)CN(Cc1ccc(-c2ccccc2)cc1)C(=O)[C@H](Cc1c[nH]cn1)NC(=O)OCc1ccccc1)c1ccccc1` (stereo partly drawn) [Example 51, (S)-[1-{Biphenyl-4-ylmethyl-[(2-phenyl-propylcarbamoyl)-methyl]-carbamoyl}-2-(1H-imidazole-4-yl)-ethyl]-carbamic Acid Benzyl Ester], the results for the IC50 in data set [1] (312 h), in data set [2] (setting [8]) and in data set [2] (setting [9]) were 0.25 µM, 0.88 µM and 0.004 µM, respectively. The minimal effective concentration in data set [4] was at least 0.05 µM.

As for `CC(C)(CNC(=O)CN(Cc1ccc(-c2ccccc2)cc1)C(=O)[C@H](Cc1c[nH]cn1)NC(=O)OCc1ccccc1)c1ccccc1` [Example 52, (S)-[1-{Biphenyl-4-ylmethyl-[(2-methyl-2-phenyl-propylcarbamoyl)-methyl]-carbamoyl}-2-(1H-imidazole-4-yl)-ethyl]-carbamic Acid Benzyl Ester], the IC50 in data set [1] (312 h) was 0.52 µM; in data set [2] (setting [8]), 0.48 µM; in data set [2] (setting [9]), 0.004 µM. Also, the minimal effective concentration in data set [4] worked out at 0.05 µM.

As for `O=C(CN(Cc1ccc(OCc2ccccc2)cc1)C(=O)[C@H](Cc1c[nH]cn1)NC(=O)OCc1ccccc1)NCCc1ccccc1Cl` [Example 53], the IC50 in data set [1] was found to be 12.4 µM; in data set [2] (setting [8]), 10.6 µM; in data set [2] (setting [9]), 0.12 µM. Also, in data set [4], the minimal effective concentration is recorded as 0.2 µM.

`COC(=O)[C@H](CCSC)NC(=O)[C@H](/C=C\[C@@H](/C=C/[C@@H](N)CS)C(C)C)Cc1ccccc1` [Example B1086]: the tumor growth result in data set [5] is “inhibit tumor growth”.

Turning to `CSCC[C@H](NC(=O)c1ccc(NC[C@@H](N)CS)cc1-c1ccccc1)C(=O)O` [FTI276], the tumor growth result in data set [6] is “selectively block tumor growth”.

Consider `CC[C@H](C)[C@@H](CO[C@@H](Cc1ccccc1)C(=O)N[C@@H](CCS(C)(=O)=O)C(=O)OC(C)C)NC[C@@H](N)CS` [L-744,832], for which the tumor regression entry in data set [7] was “caused tumor regression”.
